13 molecules from PubChem BioAssay (NCI) can be followed below.

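Compound exposure: 48 hours, 5 concentrations, 96-well plates. Abbreviation: GI50, concentration required for 50% inhibition of growth. TGI is the concentration that stops growth completely.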 Bounds are passed on as bounds.

Holding throughout (test): NCI anticancer screen, dose series, 48 h
For test [1], the system named is 786-0 renal.
In test [2] the test system is M14 melanoma.
The test system of test [3] is NCI-H226 lung.
Test [4] relates to OVCAR-3 ovarian.
In test [5] the test system is SF-539 CNS.
The subject of test [6] is SK-OV-3 ovarian.
Test [7] concerns SNB-75 CNS.
In test [8] the test system is TK-10 renal.
Test [9] relates to K-562 leukemia.
In test [10] the test system is DMS 273 small cell lung.
Test [11] has as its system HOP-18 NSCLC.
Test [12] concerns LXFL 529 NSCLC.

`COc1ccc(NC(=O)/C(CC2=Nc3ccc([N+](=O)[O-])cc3NC2O)=N\NC(=O)C[N+](C)(C)C)c(OC)c1` (stereo not given): the TGI in test [1] was 68.8 µM; in test [2], greater than 100 µM; in test [3], greater than 100 µM; in test [4] it was greater than 100 µM; in test [5], greater than 100 µM; in [6], greater than 100 µM. Moreover, the TGI in [7] and in test [8] was greater than 100 µM each time.
For the molecule `Brc1ccccc1-c1ncc(-c2ccccc2)o1`, the TGI in test [9] is greater than 100 µM; in [2] it was greater than 100 µM; in test [4], 89.6 µM; in [5], 77.1 µM; in test [6] it was greater than 100 µM; in test [7], 59.7 µM. The TGI in [8] was greater than 100 µM.
For `N#Cc1c(NC(=S)NC(=O)c2ccccc2)nc2c(c1-c1ccccc1)CCCC2`, the TGI was greater than 100 µM in [9]; greater than 100 µM in test [2]; greater than 100 µM in test [4]; 86.3 µM in [6]; 41.5 µM in test [7]; greater than 100 µM in test [8].
Regarding `COc1cc(C2c3cc4c(cc3[C@@H](Nc3cccc(C(C)=O)c3)C3COC(=O)[C@H]23)OCO4)cc(OC)c1O` (stereo not given in full), the TGI in [10] is 1.81 µM; in test [11] it was 54.3 µM; in test [9], 6.1 µM; in test [3], 1.99 µM; in test [4], 13.9 µM; in test [5], 1.24 µM. In test [6], this molecule displayed a TGI of 5.28 µM.
On to `CCOC(=O)/C=C(\C)c1ccc(OC)cc1`, for which the TGI in [10], in test [11], in [12], in test [2], in [3] and in test [5] was greater than 100 µM throughout. Also, the TGI in test [7] and in test [8] was greater than 100 µM throughout.
For the molecule `CN(C)c1ccc(N=Nc2ccccn2)cc1`, the TGI in test [1], in test [9], in [2], in [3], in test [4] and in test [5] was greater than 100 µM each time. For the same molecule, the TGI in test [6], in test [7] and in [8] was greater than 100 µM throughout.
For the molecule `ClCc1c(Cl)c(Cl)c(Cl)c(CCl)c1Cl`, the GI50 was 1.8 µM in [9]; 1.66 µM in test [2]; 2.53 µM in test [3]; 1.86 µM in test [4]; 3.72 µM in test [5]; 2.15 µM in [7]. Also, in test [8], the GI50 was 1.56 µM. The TGI in test [9] amounted to 4.37 µM; in test [2], 3.43 µM; in test [3], 7.3 µM; in test [4] it was 3.26 µM; in [5], 13.5 µM; in test [7], 7.73 µM. Further, the TGI in test [8] amounted to 2.89 µM.
`C#CC[C@@H]1C[C@]2(C)[C@H]3CC=C4[C@H]5CC(C)(C)CC[C@]5(C(=O)NCCCCN)CC[C@@]4(C)[C@]3(C)CC[C@H]2C(C)(C)[C@H]1OC(C)=O`: the GI50 in test [9] is 1.91 µM; in test [5], 1.68 µM; in test [6], 1.72 µM; in test [7] it was 1.38 µM. Also, the TGI in [9] came to 6.16 µM; in test [5], 3.1 µM; in test [6] it was 3.18 µM; in test [7], 2.69 µM.
For `CC(C)(Br)C1(O)CCCN1C(=O)c1ccccc1` (stereo not given), the TGI in test [10], in test [11], in test [9], in test [12], in test [2] and in test [4] was greater than 100 µM in each case. The TGI in [5], in test [6], in test [7] and in test [8] was greater than 100 µM throughout.
Take `Cc1ccc(S(N)(=O)=O)cc1`: the TGI in test [1], in test [9], in test [2], in [3], in test [4] and in [5] was greater than 1000 µM throughout. Moreover, the TGI in test [6] and in [8] was greater than 1000 µM in each case.
Turning to `COc1ccc(-c2cc(N3CCN(c4ccccc4)CC3)c(C#N)c(=O)o2)cc1`, the TGI in test [10] is greater than 100 µM; in test [11] it was 62.2 µM; in test [9], greater than 100 µM; in [12], greater than 100 µM; in test [2], greater than 100 µM; in test [3] it was 9.94 µM. Moreover, the TGI in [5] was found to be 41.5 µM; in test [7], 31.7 µM; in [8] it was 58 µM.
As to `NCc1ccc(C(=O)O)cc1`, the TGI in [1], in test [9], in [2], in test [3], in [4] and in [8] was greater than 100 µM throughout.
As for `COc1ccc(NC(=O)/C(=C/c2ccc(N(CCC#N)CCC#N)cc2)NC(=O)c2cc([N+](=O)[O-])ccc2Cl)cc1`, the TGI in test [10], in test [11], in test [9], in test [12], in test [2] and in test [3] was greater than 100 µM in each case. For the same molecule, the TGI was greater than 100 µM in [4], 50.8 µM in [5], greater than 100 µM in [6] and greater than 100 µM in test [8].
